Results from patent US20160144021A1, “Vaccine Composition And Method Of Use” (MEDIMMUNE, LLC, priority 2013, published 2016).

Test system: RSV A2
Experiment: RSV microneutralization of sera, highly (2x) RSV seropositive BALB/c mice
Format: in vivo
Conditions: very small amounts of antigen
Protocol: One hundred three female BALB/c mice (Charles River), ages 6-8 weeks old, were divided into 13 groups. Group 1 had 7 mice and groups 2 through 13 had 8 mice. Following anaesthetization groups 1 through 12 were dosed with 1×10^6 plaque forming units (PFU) in 100 μL of live RSV via an intranasal (IN) route on Day 0 and Day 35. Group 13 was not exposed to RSV. On Day 56, groups 1 through 11 were immunized with placebo (PBS) or vaccine article via an intramuscular (IM) route following anesthesia with isoflurane. The vaccine articles were formulated in a total of 100 μL with 50 μL given in each hind limb. Group 12 was anesthetized with isoflurane and immunized with 1×10^6 PFU in 100 μL of live RSV via an IN route. […] Sera were obtained from retro orbital blood collection at study days 0, 28, 56 70 and 84, separated from whole blood and stored at −20° C. until evaluated. Spleens from 4 animals in each group were harvested for T cell assays on Day 67, 11 days post immunization, or at day 88, 4 days post challenge. Lung cytokines quantified at 4 days after challenge in individual lung homogenates by luminex assay (Milipore).

**Q.** Which “neutralization level lower than that of the highest adjuvanted RSV sF dose of 50 μg” value does the source give for “RSV sF: RSV soluble F protein, amino acids 1-524 of the RSV A2 F sequence lacking the transmembrane domain, given without adjuvant” here?
**A.** approximately 6 fold
